Assays:
Gal-3 = Gal-3 (Homo sapiens, UniProt P17931); experiment: Fluorescence anisotropy assay, compound as inhibitor of galectin / fluorescein tagged saccharide probe interaction; assay type: binding
Procedure: (§1) The affinity of Example 1-29 for galectins were determined by a fluorescence anisotropy assay where the compound was used as an inhibitor of the interaction between galectin and a fluorescein tagged saccharide probe as described Sörme, P., Kahl-Knutsson, B., Huflejt, M., Nilsson, U. J., and Leffler H. (2004) Fluorescence polarization as an analytical tool to evaluate galectin-ligand interactions. Anal. Biochem. 334: 36-47, (Sörme et al., 2004) and Monovalent interactions of Galectin-1 By Salomonsson, Emma; Larumbe, Amaia; Tejler, Johan; Tullberg, Erik; Rydberg, Hanna; Sundin, Anders; Khabut, Areej; Frejd, Torbjorn; Lobsanov, Yuri D.; Rini, James M.; et al, From Biochemistry (2010), 49(44), 9518-9532, (Salomonsson et al., 2010).

Gal-1 = Gal-1 (Homo sapiens, UniProt P09382); experiment: as above; assay type: binding
Sequence of Gal-1 (P09382 whole entry): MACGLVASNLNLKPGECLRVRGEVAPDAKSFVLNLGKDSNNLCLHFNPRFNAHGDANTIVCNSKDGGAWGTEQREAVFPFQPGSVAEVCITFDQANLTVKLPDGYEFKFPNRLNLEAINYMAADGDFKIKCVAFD
Procedure: as §1

galectins = settings: cited from earlier work
Galectin-1 = Galectin-1 (Homo sapiens, UniProt P09382); settings: T. Delaine 2016; read-out: affinity to Galectin-1; cited from earlier work
Sequence of Galectin-1 (P09382 whole entry, species assumed): as the sequence (P09382 whole entry) above

Sequence of Gal-3 (P17931 whole entry): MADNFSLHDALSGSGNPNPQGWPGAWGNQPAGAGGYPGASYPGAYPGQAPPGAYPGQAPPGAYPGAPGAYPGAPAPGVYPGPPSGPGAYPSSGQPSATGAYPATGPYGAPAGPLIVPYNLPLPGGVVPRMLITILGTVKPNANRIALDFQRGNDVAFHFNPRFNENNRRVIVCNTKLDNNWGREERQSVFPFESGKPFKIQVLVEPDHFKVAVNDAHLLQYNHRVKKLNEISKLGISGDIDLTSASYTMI

| SMILES | Kd (Gal-3) [µM] | Kd (Gal-1) [µM] | Kd (galectins; Leffler 2001, Leffler et al. 2004, read-out: Kd, all galectins) [µM] | affinity relative to lactose, times lower (galectins; compared with lactose) | Kd (Galectin-1) [µM] |
| --- | --- | --- | --- | --- | --- |
| Cc1nc([C@@H]2O[C@H](CO)[C@H](O)[C@H](n3cc(-c4csc(N)n4)nn3)[C@H]2O)n(-c2ccc3nc(C)sc3c2)n1 [Example 24, 6-{5-{3-[4-(2-Aminothiazol-4-yl)-1H-1,2,3-triazol-1-yl]-3-deoxy-β-D-galactopyranosyl}-3-methyl-1H-1,2,4-triazol-1-yl}-2-methylbenzothiazole] | 2.6 | 3.2 | – | – | – |
| OC[C@H]1O[C@@H](O[C@H]2[C@H](O)[C@@H](O)C(O)O[C@@H]2CO)[C@H](O)[C@@H](O)[C@H]1O (stereo partly shown) [lactose] | – | – | 100 to 1000 | – | – |
| Cc1nc2ccc(-n3cnnc3[C@@H]3O[C@H](CO)[C@H](O)[C@H](n4cc(-c5nccs5)nn4)[C@H]3O)cc2s1 [Example 21, 6-{3-{3-Deoxy-3-[4-(2-thiazolyl)-1H-1,2,3-triazol-1-yl]-β-D-galactopyranosyl}-4H-1,2,4-triazol-4-yl}-2-methylbenzothiazole] | 1.2 | 3 | – | – | – |
| O=C[C@H](O)[C@@H](O)[C@@H](O)[C@H](O)CO [Galactose, D-galactose] | – | – | – | 50-100 times lower | – |
| Cc1nc2ccc(-n3cnnc3[C@@H]3O[C@H](CO)[C@H](O)[C@H](n4cc(-c5csc(O)n5)nn4)[C@H]3O)cc2s1 [Example 8, 6-{3-{3-Deoxy-3-[4-(2-hydroxythiazol-4-yl)-1H-1,2,3-triazol-1-yl]-β-D-galactopyranosyl}-4H-1,2,4-triazol-4-yl}-2-methylbenzothiazole] | 1.9 | 0.32 | – | – | – |
| CO[C@@H]1[C@@H](n2cc(-c3nc(Cl)cs3)nn2)[C@@H](O)[C@@H](CO)O[C@H]1c1nnc(C)n1-c1ccc2nc(C)sc2c1 [Example 25, 6-{3-{3-[4-(4-Chlorothiazol-2-yl)-1H-1,2,3-triazol-1-yl]-3-deoxy-2-O-methyl-β-D-galactopyranosyl}-5-methyl-4H-1,2,4-triazol-4-yl}-2-methylbenzothiazole] | 0.07 | 0.34 | – | – | – |
| Cc1csc(-c2cn([C@H]3[C@@H](O)[C@@H](CO)O[C@@H](c4nncn4-c4ccc5nc(C)sc5c4)[C@@H]3O)nn2)n1 [Example 22, 6-{3-{3-Deoxy-3-[4-(4-methylthiazol-2-yl)-1H-1,2,3-triazol-1-yl]-β-D-galactopyranosyl}-4H-1,2,4-triazol-4-yl}-2-methylbenzothiazole] | 1.8 | 2.4 | – | – | – |
| Cc1nc([C@@H]2O[C@H](CO)[C@H](O)[C@H](n3cc(-c4csc(C)n4)nn3)[C@H]2O)n(-c2ccc3nc(C)sc3c2)n1 [Example 13, 6-{5-{3-Deoxy-3-[4-(2-methylthiazol-4-yl)-1H-1,2,3-triazol-1-yl]β-D-galactopyranosyl}-3-methyl-1H-1,2,4-triazol-1-yl}-2-methylbenzothiazole] | 1.8 | 9 | – | – | – |
| Cc1nc([C@@H]2O[C@H](CO)[C@H](O)[C@H](n3cc(-c4cncs4)nn3)[C@H]2O)n(-c2ccc3nc(C)sc3c2)n1 [Example 14, 6-{5-{3-Deoxy-3-[4-(5-thiazolyl)-1H-1,2,3-triazol-1-yl]β-D-galactopyranosyl}-3-methyl-1H-1,2,4-triazol-1-yl}-2-methylbenzothiazole] | 2.3 | 19.5 | – | – | – |
| Cc1nc2ccc(-n3cnnc3[C@@H]3O[C@H](CO)[C@H](O)[C@H](n4cc(-c5nc(Cl)cs5)nn4)[C@H]3O)cc2s1 [Example 1, 6-{3-{3-[4-(4-Chlorothiazol-2-yl)-1H-1,2,3-triazol-1-yl]-3-deoxy-β-D-galactopyranosyl}-4H-1,2,4-triazol-4-yl}-2-methylbenzothiazole] | 0.15 | 0.75 | – | – | – |
| Cc1nc([C@@H]2O[C@H](CO)[C@H](O)[C@H](n3cc(-c4nc(Cl)cs4)nn3)[C@H]2O)n(-c2ccc3nc(C)sc3c2)n1 [Example 23, 6-{5-{3-[4-(4-Chlorothiazol-2-yl)-1H-1,2,3-triazol-1-yl]-3-deoxy-β-D-galactopyranosyl}-3-methyl-1H-1,2,4-triazol-1-yl}-2-methylbenzothiazole] | 0.14 | 2.1 | – | – | – |
| Cc1nc2ccc(-n3cnnc3[C@@H]3O[C@H](CO)[C@H](O)[C@H](n4cc(-c5csc(N)n5)nn4)[C@H]3O)cc2s1 [Example 6, 6-{3-{3-[4-(2-Aminothiazol-4-yl)-1H-1,2,3-triazol-1-yl]-3-deoxy-β-D-galactopyranosyl}-4H-1,2,4-triazol-4-yl}-2-methylbenzothiazole] | 1.9 | 1.6 | – | – | – |
| OCC1O[C@@H](SC2O[C@H](CO)C(O)C(n3cc(-c4ccsc4)nn3)[C@H]2O)C(O)C(n2cc(-c3ccsc3)nn2)[C@H]1O (stereo partly shown) | – | – | – | – | < 0.01 |
| Cc1nc2ccc(-n3nccc3[C@@H]3OC(CO)[C@H](O)C(n4cc(-c5nc(Cl)cs5)nn4)C3O)cc2s1 (stereo partly shown) [Example 29] | 0.6 | 0.033 | – | – | – |
| Cc1nc([C@@H]2O[C@H](CO)[C@H](O)[C@H](n3cc(-c4nccs4)nn3)[C@H]2O)n(-c2ccc3nc(C)sc3c2)n1 [Example 10, 6-{5-{3-Deoxy-3-[4-(2-thiazolyl)-1H-1,2,3-triazol-1-yl]β-D-galactopyranosyl}-3-methyl-1H-1,2,4-triazol-1-yl}-2-methylbenzothiazole] | 2.3 | 5.2 | – | – | – |

Further lines, with some results ahead:

| Kd (Gal-3) [µM] | Kd (Gal-1) [µM] | SMILES | Kd (galectins; Leffler 2001, Leffler et al. 2004, read-out: Kd, all galectins) [µM] | affinity relative to lactose, times lower (galectins; compared with lactose) | Kd (Galectin-1) [µM] |
| --- | --- | --- | --- | --- | --- |
| 0.039 | 0.9 | Cc1nc([C@@H]2OC(CO)[C@H](O)C(n3cc(-c4nc(Cl)cs4)nn3)C2O)n(-c2cc(Cl)ccc2C(F)(F)F)n1 (stereo partly shown) [Example 16] | – | – | – |
| 0.041 | 0.29 | Cc1nnc([C@@H]2O[C@H](CO)[C@H](O)[C@H](n3cc(-c4nc(Cl)cs4)nn3)[C@H]2O)n1-c1cc(Cl)ccc1C(F)(F)F [Example 9, 1-{3-{3-[4-(4-Chlorothiazol-2-yl)-1H-1,2,3-triazol-1-yl]-3-deoxy-β-D-galactopyranosyl}-5-methyl-4H-1,2,4-triazol-4-yl}-5-chloro-2-(trifluoromethyl)benzene] | – | – | – |
| 1.3 | 1.5 | Cc1nc([C@@H]2OC(CO)[C@H](O)C(n3cc(-c4csc(N)n4)nn3)C2O)n(-c2cc(Cl)ccc2C(F)(F)F)n1 (stereo partly shown) [Example 15] | – | – | – |
| 0.15 | 0.69 | Cc1nnc([C@@H]2O[C@H](CO)[C@H](O)[C@H](n3cc(-c4nccs4)nn3)[C@H]2O)n1-c1cc(Cl)ccc1C(F)(F)F [Example 20, 5-Chloro-1-{3-{3-deoxy-3-[4-(2-thiazolyl)-1H-1,2,3-triazol-1-yl]β-D-galactopyranosyl}-5-methyl-4H-1,2,4-triazol-4-yl}-2-(trifluoromethyl)benzene] | – | – | – |
| 0.82 | 0.73 | Cc1nnc([C@@H]2O[C@H](CO)[C@H](O)[C@H](n3cc(-c4csc(N)n4)nn3)[C@H]2O)n1-c1cc(Cl)ccc1C(F)(F)F [Example 19, 1-{3-{3-[4-(2-Aminothiazol-4-yl)-1H-1,2,3-triazol-1-yl]-3-deoxy-β-D-galactopyranosyl}-5-methyl-4H-1,2,4-triazol-4-yl}-5-chloro-2-(trifluoromethyl)benzene] | – | – | – |
| 0.026 | 0.52 | CO[C@@H]1[C@@H](n2cc(-c3nc(Cl)cs3)nn2)[C@@H](O)[C@@H](CO)O[C@H]1c1nnc(C)n1-c1cc(Cl)ccc1C(F)(F)F [Example 17, 1-{3-{3-[4-(4-Chlorothiazol-2-yl)-1H-1,2,3-triazol-1-yl]-3-deoxy-2-O-methyl-β-D-galactopyranosyl}-5-methyl-4H-1,2,4-triazol-4-yl}-5-chloro-2-(trifluoromethyl)benzene] | – | – | – |
| 0.7 | 2.1 | Cc1csc(-c2cn([C@H]3[C@@H](O)[C@@H](CO)O[C@@H](c4nnc(C)n4-c4cc(Cl)ccc4C(F)(F)F)[C@@H]3O)nn2)n1 [Example 11, 5-Chloro-1-{3-{3-deoxy-3-[4-(4-methylthiazol-2-yl)-1H-1,2,3-triazol-1-yl]-β-D-galactopyranosyl}-5-methyl-4H-1,2,4-triazol-4-yl}-2-(trifluoromethyl)benzene] | – | – | – |
| 0.036 | 2.6 | Cc1nnc([C@@H]2OC(CO)[C@H](O)C(n3cc(-c4nc(Cl)cs4)nn3)C2O)n1-c1ccc2ncn(C)c2c1 (stereo partly drawn) [Example 27, 5-{3-{3-[4-(4-Chlorothiazol-2-yl)-1H-1,2,3-triazol-1-yl]-3-deoxy-β-D-galactopyranosyl}-5-methyl-4H-1,2,4-triazol-4-yl}-N-3-methylbenzimidazole] | – | – | – |
| 0.13 | 0.66 | Cc1nc([C@@H]2O[C@H](CO)[C@H](O)[C@H](n3cc(-c4nc(Cl)cs4)nn3)[C@H]2O)n(-c2cc(Cl)cnc2C2CC2)n1 [Example 18, 3-{5-{3-[4-(4-Chlorothiazol-2-yl)-1H-1,2,3-triazol-1-yl]-3-deoxy-β-D-galactopyranosyl}-3-methyl-1H-1,2,4-triazol-1-yl}-5-chloro-2-cyclopropylpyridine] | – | – | – |
| 0.52 | 0.19 | Cc1nnc([C@@H]2O[C@H](CO)[C@H](O)[C@H](n3cc(-c4csc(O)n4)nn3)[C@H]2O)n1-c1cc(Cl)ccc1C(F)(F)F [Example 12, 5-Chloro-1-{3-{3-deoxy-3-[4-(2-hydroxythiazol-4-yl)-1H-1,2,3-triazol-1-yl]β-D-galactopyranosyl}-5-methyl-4H-1,2,4-triazol-4-yl}-2-(trifluoromethyl)benzene] | – | – | – |
| 0.065 | 0.59 | Cc1nc2ccc(-n3c(C)nnc3[C@@H]3O[C@H](CO)[C@H](O)[C@H](n4cc(-c5nc(Cl)cs5)nn4)[C@H]3O)cc2s1 [Example 26, 6-{3-{3-[4-(4-Chlorothiazol-2-yl)-1H-1,2,3-triazol-1-yl]-3-deoxy-β-D-galactopyranosyl}-5-methyl-4H-1,2,4-triazol-4-yl}-2-methylbenzothiazole] | – | – | – |
